From paper PMC5651230, “TMC2 Modifies Permeation Properties of the Mechanoelectrical Transducer Channel in Early Postnatal Mouse Cochlear Outer Hair Cells” (Frontiers in Molecular Neuroscience, 2017)

What was measured:
[1] = target: T1, MET channel of Tmc2−/− outer hair cells (TMC1-containing channel) (Mus musculus, UniProt Q8R4P5); assay: whole-cell patch clamp of OHC, block of MET current (fluid jet), Hill fit; format: cell-based; conditions: extracellular DHS, -81 mV, 1.3 mM Ca2+, pH 7.5, 20-25 °C; permeant open-channel pore blocker; native channel complex of Tmc2 knockout OHCs (P5-P6); read-out: KD
T1 construct: native MET channel complex in apical cochlear OHCs (P5-P6) of Tmc2 knockout mice; TMC1 the remaining TMC; full composition not known; with LHFPL tetraspan subfamily member 5 protein; Transmembrane inner ear expressed protein
T1 sequence (Q8R4P5 1-757): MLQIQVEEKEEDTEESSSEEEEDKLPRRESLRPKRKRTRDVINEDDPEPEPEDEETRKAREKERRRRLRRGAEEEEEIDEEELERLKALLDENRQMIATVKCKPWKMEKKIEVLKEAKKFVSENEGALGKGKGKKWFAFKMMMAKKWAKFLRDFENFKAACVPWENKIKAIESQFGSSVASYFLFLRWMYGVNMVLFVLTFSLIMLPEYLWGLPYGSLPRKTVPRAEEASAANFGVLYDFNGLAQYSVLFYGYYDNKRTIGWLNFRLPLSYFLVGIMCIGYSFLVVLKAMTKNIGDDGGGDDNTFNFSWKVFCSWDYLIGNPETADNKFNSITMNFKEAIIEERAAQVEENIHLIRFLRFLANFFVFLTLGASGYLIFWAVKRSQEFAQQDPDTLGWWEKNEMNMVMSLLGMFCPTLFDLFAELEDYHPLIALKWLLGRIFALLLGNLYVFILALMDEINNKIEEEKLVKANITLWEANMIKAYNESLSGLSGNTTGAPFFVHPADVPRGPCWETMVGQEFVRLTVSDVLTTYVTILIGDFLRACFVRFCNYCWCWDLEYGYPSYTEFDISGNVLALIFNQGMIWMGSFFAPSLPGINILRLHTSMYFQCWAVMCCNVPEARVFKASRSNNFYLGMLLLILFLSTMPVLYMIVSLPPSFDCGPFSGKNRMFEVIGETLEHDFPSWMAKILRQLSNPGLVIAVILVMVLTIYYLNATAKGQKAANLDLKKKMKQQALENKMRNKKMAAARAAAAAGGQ

[2] = system: T2, MET channel of Tmc2+/− outer hair cells (TMC1 and TMC2); assay: as above; format: cell-based, Mus musculus; conditions: extracellular DHS, -81 mV, 1.3 mM Ca2+, pH 7.5, 20-25 °C; permeant open-channel pore blocker; native channel complex of Tmc2 heterozygous OHCs (P5-P6); read-out: KD
T2 construct: native MET channel complex in apical cochlear OHCs (P5-P6) of heterozygous control mice; mixture of TMC1 and TMC2 in unknown proportion; with LHFPL tetraspan subfamily member 5 protein; Transmembrane inner ear expressed protein

IC50 [1]: 5.9 ± 0.2 µM
IC50 [2]: 9.1 ± 0.4 µM
SMILES: CN[C@@H]1[C@H](O[C@H]2[C@H](O[C@H]3[C@H](O)[C@@H](O)[C@H](NC(=N)N)[C@@H](O)[C@@H]3NC(=N)N)O[C@@H](C)[C@]2(O)CO)O[C@@H](CO)[C@H](O)[C@H]1O [dihydrostreptomycin]
